Source: patent US5714501A, “Piperidine derivatives” (priority 1995, dated 1998)
Where two headings read alike, the source gives them in different places.

Key:
histamine H1 receptors [1] = biological target: T1, histamine H1 receptors (Cavia porcellus, UniProt P31389); assay: Inhibition of histamine-induced contraction of isolated guinea-pig ileum; conditions: 30 min incubation with compound, 37° C.; for Kb: read-out: activity on histamine H1 receptors, pA2 (functional) (converted)
T1 construct: guinea-pig cerebellum membrane proteins; from tissue; host or cells: guinea-pig cerebellum membranes
T1 sequence (P31389 whole entry): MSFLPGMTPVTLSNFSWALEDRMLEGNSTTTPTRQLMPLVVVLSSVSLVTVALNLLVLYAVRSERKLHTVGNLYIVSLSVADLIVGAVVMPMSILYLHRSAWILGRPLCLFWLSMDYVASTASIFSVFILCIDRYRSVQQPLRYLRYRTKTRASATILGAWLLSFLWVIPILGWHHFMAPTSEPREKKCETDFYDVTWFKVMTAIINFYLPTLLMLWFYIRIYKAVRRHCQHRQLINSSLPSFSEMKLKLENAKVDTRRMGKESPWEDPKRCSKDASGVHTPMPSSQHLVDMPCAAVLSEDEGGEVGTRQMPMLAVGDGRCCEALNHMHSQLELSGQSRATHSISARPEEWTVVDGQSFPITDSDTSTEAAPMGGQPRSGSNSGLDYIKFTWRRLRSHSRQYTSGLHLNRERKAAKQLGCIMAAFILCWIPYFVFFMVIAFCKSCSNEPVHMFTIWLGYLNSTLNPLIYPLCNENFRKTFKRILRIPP
Protocol: (§1) (1) Inhibition of histamine-or LTD4 -induced contraction
(§2) The first three dose-response experiments are performed by adding histamine or leukotriene D4 cumulatively to the organ bath. After adequate washing, the ileal strip is incubated with the testing compound for 30 min. The dose-response experiment is then conducted again. The dissociation constant (Kb) of the receptor-antagonist complex is used as the parameter to indicate the potency of the testing compound and is calculated according to the Cheng-Prusoff equation.

histamine H1 receptors [2] = biological target: T1, histamine H1 receptors; assay: Inhibition of [3H]mepyramine binding to guinea-pig cerebellum membranes (and saturation experiment); conditions: 0.5 nM [3H]mepyramine, pH 7.5, 37° C., 30 min
Protocol: The method is based on that described previously. […] The reaction was stopped by the addition of 5 ml ice-cold phosphate buffer and followed by immediate filtration through Whatman GF/C filters. The filters were washed twice with about 20 ml cold buffer. The retained radioactivity was determined by a liquid scintillation counter after addition of 5 ml scintillation liquid.
In the saturation experiment, 10^-4 MR(-)dimethindene was used to define the non-specific binding.

leukotriene D4 receptors [3] = biological target: T2, leukotriene D4 receptors (Cavia porcellus, UniProt Q2NNR5); assay: Inhibition of [3H]LTD4 binding to guinea-pig lung membranes (and saturation experiment); set-up: guinea-pig lung membrane proteins; from tissue; host or cells: guinea-pig lung membranes
T2 sequence (Q2NNR5 1-340): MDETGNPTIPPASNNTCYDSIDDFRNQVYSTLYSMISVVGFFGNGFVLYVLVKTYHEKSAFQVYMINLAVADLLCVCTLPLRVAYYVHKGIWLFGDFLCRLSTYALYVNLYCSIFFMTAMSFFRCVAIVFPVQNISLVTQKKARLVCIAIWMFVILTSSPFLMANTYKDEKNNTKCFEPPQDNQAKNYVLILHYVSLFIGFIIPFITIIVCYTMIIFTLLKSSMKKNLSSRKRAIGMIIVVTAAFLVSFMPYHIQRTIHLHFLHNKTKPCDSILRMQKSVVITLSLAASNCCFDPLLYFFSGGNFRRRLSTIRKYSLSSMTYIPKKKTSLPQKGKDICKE
Protocol: The method is a modification of that described in the literature*. […] The piperazine-N,N'-bis(2-ethanesulfonic)acid buffer contains 10 mM CaCl2, 10 mM MgCl2, 50 mM NaCl, 2 mM cysteine and 2 mM glycine. The reaction was terminated by the addition of 5 ml ice-cold tris-HCl/NaClbuffer (10 mM/, pH 7.5). The mixture was immediately filtered under vacuum (Whatman GF/C filters) and the filters was washed once with 20 ml ice-cold buffer. The retained radioactivity was determined by a liquid scintillation counter.
In the saturation experiment, 2 μM LTD4 was used to define the non-specific binding.

leukotriene D4 receptors [4] = biological target: T2, leukotriene D4 receptors; assay: Inhibition of LTD4-induced contraction of isolated guinea-pig ileum; set-up: A piece of ileum (about 2 cm length) isolated from guinea-pigs; from tissue; host or cells: guinea-pig ileum
Protocol: as §1, §2

[5] = 0.2 nM [3H]-LTD4, guinea-pig lung membranes, pH 7.5, 22° C., 30 min
[6] = guinea-pig ileum, LTD4-induced contraction, 30 min incubation with compound, 37° C., read-out: activity on leukotriene D4 receptors, pA2 (functional) (converted)

Kb (histamine H1 receptors [1]) [nM] | Kd (histamine H1 receptors [2]) [nM] | Kd (leukotriene D4 receptors [3]; [5]) [nM] | Kb (leukotriene D4 receptors [4]; [6]) [nM] | Compound | also measured
42.7 | 147 |  |  | O=C(N[C@@H](CN1CCC(=C2c3ccccc3C=Cc3ccccc32)CC1)C(=O)O)OCc1ccccc1 [Example 6, (S)-2-Benzyloxycarbonylamino-3-[4-(5H-dibenzo[a,d]cyclohepten-5-ylidene)piperidin-1-yl]propionic acid] | inhibition at 10 µM (leukotriene D4 receptors [3]; drug at the concentration of 10^-5 M, guinea-pig receptor preparations): 28%
33.1 | 871 | 6800 | 1120 | O=C(N[C@@H](CN1CCC(=C2c3ccccc3CCc3ccccc32)CC1)C(=O)O)OCc1ccccc1 [Example 7, (S)-2-Benzyloxycarbonylamino-3-[4-(10,11-dihydro-5H-dibenzo[a,d]cyclohepten-5-ylidene)-piperidin-l-yl]propionic acid] | 
10 | 412 | 1550 | 141 | O=C(N[C@H](CN1CCC(=C2c3ccccc3CCc3ccccc32)CC1)C(=O)O)OCc1ccccc1 [Example 8, (R)-2-Benzyloxycarbonylamino-3-[4-(10,11-dihydro-5H-dibenzo[a,d]-cyclohepten-5-ylidene)piperidin-1-yl]propionic acid] | 
 |  |  |  | CCCc1c(OCC(O)COc2ccc3c(=O)cc(C(=O)O)oc3c2CCC)ccc(C(C)=O)c1O (stereo not shown) [FPL55712, reference compound] | activity on histamine H1 receptors, pA2 (functional) (histamine H1 receptors [1]): not active; activity on histamine H1 receptors, KD (binding) (histamine H1 receptors [2]): not active; Kb (leukotriene D4 receptors [4]): 120 nM
 |  |  |  | CC(C)(C)c1ccc(C(O)CCCN2CCC(C(O)(c3ccccc3)c3ccccc3)CC2)cc1 (stereo not shown) [terfenadine, reference compound] | activity on leukotriene D4 receptors, KD (binding) (leukotriene D4 receptors [3]; [5]): not active; activity on leukotriene D4 receptors, pA2 (functional) (leukotriene D4 receptors [4]; guinea-pig ileum, LTD4-induced contraction, 30 min incubation with compound, 37° C.): not active
